Each structure is given as a SMILES string. Like-named read-outs stand apart in the source and are kept apart here.

In series [1] the test system is PD1 signal sequence plus 10 amino acids fused to Gaussia Luciferase (PD1-ss+10aa/Gaussia Luciferase). Briefly: Dox Induced PD1-ss-Gluc Assay. The class given is cell-based. The note with it: 24 hr, read-out: 24 hr Dox Inducible PD1ssGluc 293FRT/TO: Mean IC50. The method in brief: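 Stable Flp-In 293 T-REx line expressing the fusion under tetracycline-inducible control, plated the day before assay. Compound dilutions added with doxycycline and incubated at 37 °C, 5% CO2; unspecified stereocentres mean data refer to stereoisomer mixtures.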

In series [2] the test system is full length PD1 (amino acids 1-288) fused to Firefly Luciferase. Kind of series: Dox Induced PD1-FL-Gluc Assay. The note with it: 24 hr, 293FRT/TO; read-out: 24 hr Dox Inducible PD1FLFluc 293FRT/TO: Mean IC50. The class given is cell-based. The text has this: FIp-In 293 T-REx™ cells were transfected with pcDNA™5/FRT/TO plasmid inserted with cDNA encoding Firefly Luciferase fused to the 3′ end of cDNA encoding full length PD1 (amino acids 1-288). Transfected cells were selected for resistance to the selectable markers Hygromycin and Blasticidin to create a stable cell line that contained the PD1-FL/Firefly Luciferase cDNA insert whose expression was regulated under the T-REx™ system. The day before assay, cells were trypsinized and plated in 384-well tissue culture plates. The next day, compound dilutions in DMSO/media containing doxycycline were added to the wells and incubated at 37° C., 5% CO2.
For chemical structures that include one or more stereoisomers, but are illustrated without indicating stereochemistry, the assay data refers to a mixture of stereoisomers.

In series [3] the test system is full length TNFα (amino acids 1-233) fused to Gaussia Luciferase. Kind of series: Dox Induced TNFα-FL-Gluc Assay. The class given is cell-based. The note with it: 24 hr, read-out: 24 hr Dox Inducible TNFaFLGluc 293FRT/TO: Mean IC50. Summed up: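 Stable Flp-In 293 T-REx line expressing doxycycline-inducible full-length TNFα fused to Gaussia luciferase; cells plated the day before, then treated with compound dilutions in doxycycline-containing medium at 37° C, 5% CO2. Unspecified stereocentres mean stereoisomer mixtures were tested.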

Series [4] relates to full length IL-2 (amino acids 1-153) fused to Gaussia Luciferase. Kind of series: Dox Induced IL2-FL-Gluc Assay. The note with it: 24 hr, read-out: 24 hr Dox Inducible IL2FLGluc 293FRT/TO: Mean IC50. The class given is cell-based. Summed up: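 Flp-In 293 T-REx stable line expressing full-length IL-2 (aa 1-153) with C-terminal Gaussia luciferase fusion under doxycycline-inducible control. Cells plated the day before; compound dilutions added in DMSO/media containing doxycycline, incubated at 37° C, 5% CO2.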

The test system of series [5] is multiple myeloma cell line NCl-H929. Briefly: H929 Cell Viability Assay. It counts as cell-based, human. Conditions: Homo sapiens, NCI-H929, 48 h. The method in brief: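 NCI-H929 myeloma cells in RPMI 1640 with 10% FBS were treated with compound dilutions for 48 h at 37 °C, and viability was then read by CellTiter-Glo luminescence. Compounds drawn without stereochemistry were tested as stereoisomer mixtures.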

The subject of series [6] is multiple myeloma cell line U266B1. Briefly: U266 Cell Viability Assay. It counts as cell-based, human. Conditions: Homo sapiens, U-266, 48 hr. The method in brief:
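U266B1 myeloma cells in RPMI 1640 with 10% FBS were treated with compound dilutions for 48 h at 37° C, 5% CO2. Viability was read as CellTiter-Glo luminescence. Data for structures drawn without stereochemistry refer to stereoisomer mixtures.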

Series [7] in a line: In Vitro Microsome Stability Assay (human). It counts as in vitro ADME. The method in brief: (§1)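 Test article, added from a 0.25 mM DMSO stock, was incubated with liver microsomes (20 mg/mL stock) in 0.1 M potassium phosphate at 37° C, with the reaction started by NADPH. Samples were quenched with acetonitrile containing internal standard at 0 and 30 min and analysed by LC-MS/MS. Values are % remaining at 30 min versus 0 min, using IS-normalised AUC ratios.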

Series [8] can be described thus: In Vitro Microsome Stability Assay (mouse). The class given is in vitro ADME. Summed up: as §1
Series [9] in a line: In Vitro Microsome Stability Assay (rat). It counts as in vitro ADME. Summed up:
as §1

A short description of series [10]: In Vitro Microsome Stability Assay (monkey). The class given is in vitro ADME. The method in brief:
as §1

Another series has as its system GM-CSF. Briefly: Human PBMC Cytokine Assay: GM-CSF. The class given is cell-based. Conditions: anti-CD3/CD28 stimulation, 24 hours. How it is done:
(§2) Human PBMC were freshly isolated from whole blood collections of 3 normal donors utilizing density gradient centrifugation followed by red blood cell lysis. PBMC from each donor were assayed separately. Cells were suspended in RPMI 1640 media supplemented with 5% fetal bovine serum, 2 mM L-glutamine, 10 mM HEPES, and 1× penicillin/streptomycin. PBMC were seeded at 200,000 cells/well in 96-well round-bottom plates either without stimulation or with stimulation by lipopolysaccharide (LPS, 1 μg/mL) or antibodies against human CD3 (plate-bound, 2 μg/mL) and human CD28 (soluble, 2 μg/mL). Serial dilutions of compound in DMSO/media were simultaneously added and PBMC were incubated at 37° C., 5% CO2 for 24 hours. After 24 hours, plates were centrifuged and half of the supernatant volume removed for cytokine analysis by electrochemiluminescent immunoassay (U-PLEX® Biomarker Multiplex, Meso Scale Discovery). For viability analysis, CellTiter-Glo® (Promega) was added to the remaining material in each well and quantified via luminescent plate reader.

The subject of another series is IFNγ. Briefly: Human PBMC Cytokine Assay: IFNγ. The class given is cell-based. Conditions: anti-CD3/CD28 stimulation, 24 hours. As for the experimental part: as §2
In a further series the test system is IL-1β. Kind of series: Human PBMC Cytokine Assay: IL-1β. It counts as cell-based. Conditions: LPS stimulation, 24 hours. How it is done:
as §2

In a further series the test system is IL-2. Kind of series: Human PBMC Cytokine Assay: IL-2. It counts as cell-based. The note with it: anti-CD3/CD28 stimulation, 24 hours. As for the experimental part:
as §2

The next series has as its system IL-6. Kind of series: Human PBMC Cytokine Assay: IL-6. It counts as cell-based. The note with it: LPS stimulation, 24 hours. How it is done:
as §2

The test system of a further series is IL-23. Briefly: Human PBMC Cytokine Assay: IL-23. The note with it: LPS stimulation, 24 hours. It counts as cell-based. As for the experimental part: as §2
In the next series the test system is TNFα. Kind of series: Human PBMC Cytokine Assay: TNFα. The note with it: anti-CD3/CD28 stimulation, 24 hours. The class given is cell-based. How it is done:
as §2

The next series has as its system Human PBMC. Kind of series: Human PBMC CellTiter-Glo viability. It counts as cell-based. The note with it: no stimulation, 24 hours. As for the experimental part: as §2
(In general: Cellular ATP, detected with luciferase, serves as a proxy for viable cell number.)

Where [11] appears, read: H929, read-out: 48 hr H929 Viability Celltiter-Glo: Mean EC50.
The mark [12] stands for this setting: U266, read-out: 48 hr U266 Viability Celltiter-Glo: Mean EC50.

Regarding `C[C@@H]1CN(S(=O)(=O)c2ccc(N(C)C)cc2)CCCN(CC2CCCCC2)CCCN(S(=O)(=O)N2CCC(c3ccccc3)CC2)C1` [A76, 4-{[(3 R)-9-(cyclohexylmethyl)-3-methyl-5-[(4-phenylpiperidin-1-yl)sulfonyl]-1,5,9-triazacyclododecan-1-yl]sulfonyl}-N,N-dimethylaniline], the IC50 in series [1] (293FRT/TO), in series [2], in [3] (293FRT/TO) and in series [4] (293FRT/TO) was > 25000 nM throughout. The EC50 in [5] (setting [11]) and in series [6] (setting [12]) was > 25000 nM each time. Further, the “Liver Microsome Stability-% Left after 30 min w/ NADPH (%) Human” value (“Liver Microsome Stability-% Left … (%) Human” below) in series [7] (human, 30 min, NADPH) amounted to 53.1%. Moreover, the “Liver Microsome Stability-% Left after 30 min w/ NADPH (%) Mouse” value (“Liver Microsome Stability-% Left … (%) Mouse” below) in [8] (mouse, 30 min, NADPH) came out at 28.6%. In addition, the “Liver Microsome Stability-% Left after 30 min w/ NADPH (%) Rat” value (“Liver Microsome Stability-% Left … (%) Rat” below) in [9] (rat, 30 min, NADPH) is 33.9%. Further, the “Liver Microsome Stability-% Left after 30 min w/ NADPH (%) Monkey” value (from here on “Liver Microsome Stability-% Left … (%) Monkey”) in series [10] (monkey, 30 min, NADPH) stood at 35.7%.
With `C[C@H]1CN(S(=O)(=O)c2ccc(N(C)C)cc2)CCCN(CC2CCCCC2)CCCN(S(=O)(=O)N2CCC(c3ccccc3)CC2)C1` [A77, 4-{[(3S)-9-(cyclohexylmethyl)-3-methyl-5-[(4-phenylpiperidin-1-yl)sulfonyl]-1,5,9-triazacyclododecan-1-yl]sulfonyl}-N,N-dimethylaniline], the IC50 in [1] (293FRT/TO) was 95 nM; in series [2], 338 nM; in series [3] (293FRT/TO), 5540 nM; in series [4] (293FRT/TO), 360 nM. The figures for the EC50 in series [5] (setting [11]) and in [6] (setting [12]) were 4010 nM and > 25000 nM, respectively. Further, the “Liver Microsome Stability-% Left … (%) Human” value in series [7] (human, 30 min, NADPH) was found to be 30.1%. In [8] (mouse, 30 min, NADPH), the “Liver Microsome Stability-% Left … (%) Mouse” value is 37.3%. In addition, the “Liver Microsome Stability-% Left … (%) Rat” value in [9] (rat, 30 min, NADPH) came to 32.5%. In series [10] (monkey, 30 min, NADPH), the “Liver Microsome Stability-% Left … (%) Monkey” value stood at 20.8%.
With `Cc1ccccc1CN1CCCN(S(=O)(=O)c2ccc(N(C)C)cc2)C[C@H](C)CN(S(=O)(=O)N2CCc3cc(Cl)ccc3C2)CCC1` [A133, 4-{[(3S)-5-[(6-chloro-1,2,3,4-tetrahydroisoquinolin-2-yl)sulfonyl]-3-methyl-9-[(2-methylphenyl)methyl]-1,5,9-triazacyclododecan-1-yl]sulfonyl}-N,N-dimethylaniline], the IC50 in series [1] (Dox inducible, 293FRT/TO cells) is 36.8 nM; in series [3] (Dox inducible, 293FRT/TO cells) it was 749 nM; in series [4] (Dox inducible, 293FRT/TO cells), 135 nM; with GM-CSF, 404 nM; in the series on IFNγ, 234 nM; in the series with IL-1β, > 25000 nM. The IC50 in the series on IL-2 is 197 nM; in the series on IL-6 it was 193 nM; in the series with IL-23 it was 1050 nM; in the series with TNFα it was 216 nM; with Human PBMC, > 25000 nM. For the same compound, the EC50 (usually the concentration giving half of the maximal effect) is 5120 nM in series [5] (H929, Celltiter-Glo) and > 25000 nM in series [6] (U266, Celltiter-Glo). Also, the “Liver Microsome Stability-% Left … (%) Human” value in series [7] (human liver microsomes, 30 min w/ NADPH) is on record as 71.3%. The “Liver Microsome Stability-% Left … (%) Mouse” value in [8] (mouse liver microsomes, 30 min w/ NADPH) is reported as 82.2%. In [9] (rat liver microsomes, 30 min w/ NADPH), the “Liver Microsome Stability-% Left … (%) Rat” value was determined as 87.3%. Further, the “Liver Microsome Stability-% Left … (%) Monkey” value in [10] (monkey liver microsomes, 30 min w/ NADPH) is given as 67.3%.

For the origin of these results see US11578055B2, “Triazacyclododecansulfonamide (“TCD”)-based protein secretion inhibitors” (KEZAR LIFE SCIENCES, priority 2018, dated 2023).
